{
  "source": "paper PMC10809370",
  "about": "“Dye-Decolorizing Peroxidase of Streptomyces coelicolor (ScDyPB) Exists as a Dynamic Mixture of Kinetically Different Oligomers” (ACS Omega, 2024)",
  "key": {"[1]": {"molecular_target": "T1, Dye-decolorizing peroxidase ScDyPB (Streptomyces coelicolor, UniProt Q9FBY9)", "T1 construct": "gene SCO7193", "T1 sequence (Q9FBY9 1-316)": "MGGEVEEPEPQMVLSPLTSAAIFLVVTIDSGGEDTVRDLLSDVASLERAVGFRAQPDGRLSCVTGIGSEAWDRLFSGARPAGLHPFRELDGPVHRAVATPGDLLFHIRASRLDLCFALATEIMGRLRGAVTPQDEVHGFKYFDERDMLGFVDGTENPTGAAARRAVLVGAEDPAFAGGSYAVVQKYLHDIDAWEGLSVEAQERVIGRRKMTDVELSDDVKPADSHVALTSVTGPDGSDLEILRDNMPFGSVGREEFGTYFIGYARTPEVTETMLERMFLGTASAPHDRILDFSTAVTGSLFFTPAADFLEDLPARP", "assay": "biochemical"}, "[2]": {"molecular_target": "T1, Dye-decolorizing peroxidase ScDyPB", "assay": "initial rates of MHQ oxidation to methylquinone at […] nm, purified enzyme", "assay_type": "biochemical"}, "[3]": {"molecular_target": "T1, Dye-decolorizing peroxidase ScDyPB", "assay": "dye oxidation rate at […] nm, […] dye, […] H2O2", "assay_type": "biochemical"}, "[4]": {"molecular_target": "T1, Dye-decolorizing peroxidase ScDyPB", "assay": "dye oxidation rate at […] nm, […] dye, […] H2O2", "assay_type": "biochemical", "remark": "listed apart in the source"}, "purified protein": {"substrate": "OO", "assay": "purified protein", "settings": "heme heme in its resting state"}, "[5]": {"molecular_target": "the molecule itself", "assay": "SEC; Superdex 75 Increase 10/300 GL, 20 mM Tris-HCl, 0.1 M NaCl, pH 7.5; 100 uL of 18.1 uM ScDyPB injected; calibrated with standard proteins; apparent molecular weights"}},
  "data": [
    {"molecule": "CCn1c(=NN=c2sc3cc(S(=O)(=O)O)ccc3n2CC)sc2cc(S(=O)(=O)O)ccc21", "note": "[ABTS, 2,2′-azino-di(3-ethyl-benzothiazoline-6-sulfonic acid)]", "values": [
      {"measurement": "Ki", "setting": "[1]", "result": "4.12 ± 0.36", "unit": "µM"}
    ]},
    {"molecule": "Cc1cc(O)ccc1O", "note": "[MHQ, methylhydroquinone]", "values": [
      {"measurement": "initial rates of MHQ oxidation to methylquinone at 251 nm, purified enzyme", "setting": "[2]", "result": "the rate of the oxidation of both ABTS and MHQ scaled linearly with the concentration of the ScDyPB in the cuvette"}
    ]},
    {"molecule": "Nc1c(S(=O)(=O)O)cc(Nc2ccc(S(=O)(=O)O)c(Nc3nc(Cl)nc(Cl)n3)c2)c2c1C(=O)c1ccccc1C2=O", "note": "[RB4, reactive blue 4]", "values": [
      {"measurement": "dye oxidation rate at 610 nm, 0.1 mM dye, 1.0 mM H2O2", "setting": "[3]", "result": "0.66 ± 0.04", "unit": "s^–1"}
    ]},
    {"molecule": "Nc1c(S(=O)(=O)O)cc(Nc2cccc(S(=O)(=O)CCOS(=O)(=O)O)c2)c2c1C(=O)c1ccccc1C2=O", "note": "[RB19, reactive blue 19]", "values": [
      {"measurement": "dye oxidation rate at 595 nm, 0.1 mM dye, 1.0 mM H2O2", "setting": "[4]", "result": "0.58 ± 0.02", "unit": "s^–1"}
    ]},
    {"molecule": "Dye-decolorizing peroxidase from S. coelicolor A3(2) (ScDyPB) (enzyme, Streptomyces coelicolor A3(2), Dye-decolorizing peroxidase ScDyPB, Streptomyces coelicolor A3(2), UniProtKB Q9FBY9; molecular weight printed as 34 kDa; Heme protein, reconstituted with hemin; also called type B dye-decolorizing peroxidase of Streptomyces coelicolor; subfamily B DyP; source: E. coli BL21 (DE3), purified, reconstituted with hemin) MGGEVEEPEPQMVLSPLTSAAIFLVVTIDSGGEDTVRDLLSDVASLERAVGFRAQPDGRLSCVTGIGSEAWDRLFSGARPAGLHPFRELDGPVHRAVATPGDLLFHIRASRLDLCFALATEIMGRLRGAVTPQDEVHGFKYFDERDMLGFVDGTENPTGAAARRAVLVGAEDPAFAGGSYAVVQKYLHDIDAWEGLSVEAQERVIGRRKMTDVELSDDVKPADSHVALTSVTGPDGSDLEILRDNMPFGSVGREEFGTYFIGYARTPEVTETMLERMFLGTASAPHDRILDFSTAVTGSLFFTPAADFLEDLPARP", "values": [
      {"measurement": "Km", "setting": "purified protein", "result": "890 ± 60", "unit": "µM"},
      {"measurement": "stoichiometry N", "setting": "[5]", "result": 3}
    ]}
  ]
}
